This passage reports IC50 and inhibition results from PMC7658267, “Effects of CYP46A1 Inhibition on Long-Term-Depression in Hippocampal Slices ex vivo and 24S-Hydroxycholesterol Levels in Mice in vivo” (Frontiers in Molecular Neuroscience, 2020).

Experiment [1] has as its target T1, CYP46A1 (Homo sapiens, UniProt Q9Y6A2). The experiment is described as follows: recombinant human CYP46A1 microsomes, cholesterol to 24-hydroxycholesterol, LC-MS/MS ([…] with testosterone as substrate). Format: biochemical.
The target of the next experiment is T2, Human 5-HT2A (Homo sapiens, UniProt P28223).
T2 construct: gene HTR2A
T2 sequence (P28223 whole entry): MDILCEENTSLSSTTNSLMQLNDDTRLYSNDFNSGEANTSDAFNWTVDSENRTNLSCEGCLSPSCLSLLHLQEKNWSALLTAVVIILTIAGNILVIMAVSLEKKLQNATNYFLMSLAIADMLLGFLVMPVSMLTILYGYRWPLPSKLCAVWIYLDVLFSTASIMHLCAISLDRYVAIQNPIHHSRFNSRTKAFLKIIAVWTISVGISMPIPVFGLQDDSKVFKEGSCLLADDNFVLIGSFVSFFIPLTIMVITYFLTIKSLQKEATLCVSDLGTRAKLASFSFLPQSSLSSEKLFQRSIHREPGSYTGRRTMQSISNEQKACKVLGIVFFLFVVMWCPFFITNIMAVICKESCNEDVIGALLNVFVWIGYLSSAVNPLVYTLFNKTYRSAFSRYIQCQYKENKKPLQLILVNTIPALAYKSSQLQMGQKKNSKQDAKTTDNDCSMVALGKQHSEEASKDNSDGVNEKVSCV
The experiment is described as follows: biochemical. More on the design: CEREP off-target binding panel, per cent inhibition at 10 uM, n = 2.

In experiment [2] the target is T1, CYP46A1. The experiment is described as follows: recombinant human CYP46A1 microsomes, cholesterol to 24-hydroxycholesterol, LC-MS/MS ([…] with testosterone as substrate). Format: biochemical. This is another data set of the same source.
The next experiment has as its target T3, Human β1 (Homo sapiens, UniProt P08588).
T3 construct: gene ADRB1
The experiment is described as follows: biochemical. More on the design: CEREP off-target binding panel, per cent inhibition at 10 uM, n = 2.

A further experiment deals with T4, Human M2 (Homo sapiens, UniProt P08172).
T4 construct: gene CHRM2
T4 sequence (P08172 whole entry): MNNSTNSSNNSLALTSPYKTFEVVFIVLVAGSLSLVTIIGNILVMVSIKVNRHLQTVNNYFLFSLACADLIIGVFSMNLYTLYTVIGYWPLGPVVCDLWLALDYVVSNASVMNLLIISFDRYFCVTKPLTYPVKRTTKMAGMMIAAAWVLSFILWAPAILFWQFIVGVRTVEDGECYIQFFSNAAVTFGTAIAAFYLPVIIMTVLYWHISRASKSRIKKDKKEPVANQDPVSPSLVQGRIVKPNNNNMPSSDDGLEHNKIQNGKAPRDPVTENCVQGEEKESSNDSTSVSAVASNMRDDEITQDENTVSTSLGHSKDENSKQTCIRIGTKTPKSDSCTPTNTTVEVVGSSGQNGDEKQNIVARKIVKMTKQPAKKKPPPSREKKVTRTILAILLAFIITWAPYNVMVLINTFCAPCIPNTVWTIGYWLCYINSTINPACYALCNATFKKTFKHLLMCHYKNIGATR
The experiment in a line: biochemical. More on the design: CEREP off-target binding panel, per cent inhibition at 10 uM, n = 2.

Like-named read-outs stand apart in the source and are kept apart here.

T1 sequence (Q9Y6A2 whole entry): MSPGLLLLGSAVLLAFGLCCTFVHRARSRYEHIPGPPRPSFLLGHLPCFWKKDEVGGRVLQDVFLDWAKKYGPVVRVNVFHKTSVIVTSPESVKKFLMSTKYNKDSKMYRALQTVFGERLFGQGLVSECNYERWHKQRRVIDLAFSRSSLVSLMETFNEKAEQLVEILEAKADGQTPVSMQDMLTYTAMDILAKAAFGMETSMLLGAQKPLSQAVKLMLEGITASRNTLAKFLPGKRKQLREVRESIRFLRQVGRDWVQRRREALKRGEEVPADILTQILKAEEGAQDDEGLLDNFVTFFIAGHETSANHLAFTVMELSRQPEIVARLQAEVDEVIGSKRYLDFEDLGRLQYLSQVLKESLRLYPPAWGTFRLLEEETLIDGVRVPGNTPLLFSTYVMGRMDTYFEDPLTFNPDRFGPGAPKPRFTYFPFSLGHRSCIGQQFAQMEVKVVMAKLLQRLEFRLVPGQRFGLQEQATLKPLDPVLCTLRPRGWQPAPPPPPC
T3 sequence (P08588 whole entry): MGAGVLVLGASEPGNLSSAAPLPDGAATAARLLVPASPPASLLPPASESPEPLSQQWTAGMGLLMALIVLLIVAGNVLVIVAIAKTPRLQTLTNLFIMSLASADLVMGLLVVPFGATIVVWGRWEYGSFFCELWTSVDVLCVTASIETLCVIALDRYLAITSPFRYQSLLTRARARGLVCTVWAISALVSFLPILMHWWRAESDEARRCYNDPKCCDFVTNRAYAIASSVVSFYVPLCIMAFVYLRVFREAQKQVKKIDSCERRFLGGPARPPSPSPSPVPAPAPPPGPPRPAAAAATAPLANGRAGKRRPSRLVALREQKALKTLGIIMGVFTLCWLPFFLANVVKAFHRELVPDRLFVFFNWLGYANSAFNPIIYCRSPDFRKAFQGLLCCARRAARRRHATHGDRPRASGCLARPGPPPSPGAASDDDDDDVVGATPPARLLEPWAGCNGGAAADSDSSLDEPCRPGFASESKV

For `O=C(c1cnc2c(-c3cnco3)cc(C(F)(F)F)cn12)N1C2CCC1COC2` [compound 1, (3-oxa-8-azabicyclo[3.2.1]octan-8-yl)(8-(oxazol-5-yl)-6-(trifluoromethyl)imidazo[1,2-a]pyridin-3-yl)methanone], the IC50 (as a rule, the point on the concentration scale where inhibition reaches its midpoint) on CYP46A1 [1] worked out at 22 nM.
In the case of `O=C(c1cccnc1-c1ccncn1)N1CCC(O)(Cc2ccc(F)cc2)CC1` [compound 2, (4-(4-fluorobenzyl)-4-hydroxypiperidin-1-yl)(2-(pyrimidin-4-yl)pyridin-3-yl)methanone], the inhibition – broadly, the change of the read-out against control, counted positive when it falls – at 10 µM is -5% at Human 5-HT2A, -0.7% at Human β1 and 12.3% at Human M2. Also, at CYP46A1 [2], the IC50 turned out to be 32 nM.
